For 46 compounds, IC50 results are on record in patent publication US20250019387A1 (Frontier Medicines Corporation, priority 0001, published 2025).

In this experiment the target is KRAS G12C and cRAF (Ras-binding domain) interaction (Homo sapiens (Human), UniProt P01116, C118S/C51S/C80L/G12C). Kind of experiment: Inhibition of KRAS G12C and cRAF binding (AlphaScreen). The conditions noted are these: additional exemplary compounds; KRAS G12C and cRAF binding; read-out: RAF1 RBD IC50. As to the method: Compounds were diluted in 100% DMSO and each compound concentration was spotted at 200 nl/well onto low volume, white 384 well plates. […] Plates were incubated for 19-20 hours. A mixture of RBD and the AlphaScreen streptavidin donor and glutathione acceptor beads diluted in 25 mM Hepes, pH 7.4, 150 mM NaCl, 5 mM MgCl2, 0.01% TritonX-100 and 2% DMSO was then added at 10 ul/well and incubated for 60-90 minutes before the samples were read for emission at 570 nm after excitation of the donor beads at 680 nm. All incubations were performed at room temperature. […] IC50s were determined using nonlinear regression fit of [inhibitor]vs. response (4 parameters). […]
KRAS G12C and cRAF (Ras-binding domain) interaction, sequence (P01116 other isoform, or with tags, fused parts or gaps G12C/C51S/C80L/C118S): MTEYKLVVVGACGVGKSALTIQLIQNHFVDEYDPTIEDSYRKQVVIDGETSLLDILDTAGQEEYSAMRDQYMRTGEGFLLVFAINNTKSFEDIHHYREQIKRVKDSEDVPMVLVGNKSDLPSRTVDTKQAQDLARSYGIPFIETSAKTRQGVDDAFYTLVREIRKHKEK
By IC50 is commonly meant the concentration that inhibits the measured activity by half. As for `CN(C)C/C=C/C(=O)N1CC[C@@H](N(C)c2nc(OC[C@@]34CCCN3C[C@H](F)C4)nc3c2CCN(c2cccc4ccc(F)c(Cl)c24)C3)C1`, the IC50 was in the range of 0.01 to 0.1 µM.
Then `C=CC(=O)N1C[C@H](N(C)c2nc(OCC34CCCN3CCC4)nc3c2CCN(c2cccc4cccc(Cl)c24)C3)C[C@H]1C`, with more than 0.5 µM; and `C=CC(=O)N1CCC[C@@H](N(C)c2nc(OCC34CCCN3CCC4)nc3c(F)c(-c4cccc5cccc(Cl)c45)ncc23)C1`, with more than 0.5 µM.
Regarding `C=CC(=O)N1CC(N(C)c2nc(OCC34CCCN3CCC4)nc3c2CCN(c2cccc4cccc(Cl)c24)C3)C1`, the IC50 is more than 0.5 µM.
The result for `C/C=C/C(=O)CCN(C)c1nc(OC[C@@H]2CCCN2C)nc2c1CCN(c1cccc3ccccc13)C2` reads more than 0.5 µM; that for `C=CC(=O)N1CC(N(C)c2nc(OC[C@@]34CCCN3C[C@H](F)C4)nc3c2CCN(c2cccc4cccc(Cl)c24)C3)C1`, more than 0.5 µM; that for `C=CC(=O)C[C@H](C)N(C)c1nc(OC[C@@H]2CCCN2C)nc2c1CCN(c1cccc3ccccc13)C2`, more than 0.5 µM.
With `C=CC(=O)N1CC(CN(C)c2nc(OCC34CCCN3CCC4)nc3c(F)c(-c4cccc5cccc(Cl)c45)ncc23)C1`, the IC50 lay within 0.01 to 0.1 µM.
On to `C=CC(=O)[C@H](C)CN(C)c1nc(OC[C@@H]2CCCN2C)nc2c1CCN(c1cccc3ccccc13)C2`, for which the IC50 is more than 0.5 µM.
In the case of `CN(c1nc(OCC23CCCN2CCC3)nc2c1CCN(c1cccc3cccc(Cl)c13)C2)[C@@H]1CCN(C(=O)/C=C/C2(C)COC2)C1`, the half-maximal inhibitory concentration (IC50) was more than 0.5 µM.
The result for `C=CC(=O)[C@@H](C)CN(C)c1nc(OC[C@@H]2CCCN2C)nc2c1CCN(c1cccc3ccccc13)C2` reads 0.01 to 0.1 µM; that for `CCN(CC)C/C=C/S(=O)(=O)CCN(C)c1nc(OC[C@@H]2CCCN2C)nc2c(F)c(-c3cccc4cccc(Cl)c34)ncc12`, 0.01 to 0.1 µM.
Then `CCOC/C=C/S(=O)(=O)CCN(C)c1nc(OC[C@@H]2CCCN2C)nc2c(F)c(-c3cccc4cccc(Cl)c34)ncc12`, with more than 0.5 µM; and `CCN(CC)C/C=C/S(=O)(=O)CCN(C)c1nc(OC[C@@]23CCCN2C[C@H](F)C3)nc2c1CCN(c1cccc3cccc(Cl)c13)C2`, with less than 0.01 µM; and `C=CC(=O)N1C[C@H](N(C)c2nc(OCC34CCCN3CCC4)nc3c(F)c(-c4cccc5cccc(Cl)c45)ncc23)C[C@H]1C`, with more than 0.5 µM.
Then `C=CC(=O)N1CCC[C@@H](N(C)c2nc(OCC34CCCN3CCC4)nc3c2CCN(c2cccc4cccc(Cl)c24)C3)C1`, with more than 0.5 µM; and `C=CC(=O)N1C[C@H](N(C)c2nc(OCC34CCCN3CCC4)nc3c2CCN(c2cccc4cccc(Cl)c24)C3)[C@H]1C`, with more than 0.5 µM; and `C=CC(=O)N1C[C@H](N(C)c2nc(OCC34CCCN3CCC4)nc3c(F)c(-c4cccc5cccc(Cl)c45)ncc23)[C@H]1C`, with more than 0.5 µM.
As to `CN(CCS(=O)(=O)/C=C/CC1CC1)c1nc(OCC23CCCN2CCC3)nc2c1CCN(c1cccc3cccc(Cl)c13)C2`, the IC50 is more than 0.5 µM.
The result for `CN(CCS(=O)(=O)/C=C/CC1CC1)c1nc(OC[C@@H]2CCCN2C)nc2c(F)c(-c3cccc4cccc(Cl)c34)ncc12` reads more than 0.5 µM; that for `C=CC(=O)N1CCC(N(C)c2nc(OCC34CCCN3CCC4)nc3c2CCN(c2cccc4cccc(Cl)c24)C3)C1CC#N` (stereo not shown), more than 0.5 µM; that for `C=CC(=O)N1C[C@H](N(C)c2nc(OCC34CCCN3CCC4)nc3c2CCN(c2cccc4cccc(Cl)c24)C3)CC1C#N` (stereo partly shown), 0.1 to 0.5 µM.
For `C=CC(=O)N1CC[C@@H](N(C)c2nc(OCC34CCCN3CCC4)nc3c(F)c(-c4cccc5ccc(F)c(Cl)c45)ncc23)C1`, the IC50 fell in the range of 0.01 to 0.1 µM.
The result for `C=CC(=O)N1CC[C@@H](N(C)c2nc(OC[C@@]34CCCN3C[C@H](F)C4)nc3c(F)c(-c4cccc5ccc(F)c(Cl)c45)ncc23)C1` reads 0.01 to 0.1 µM; that for `C=CC(=O)N1C[C@@H](N(C)c2nc(OCC34CCCN3CCC4)nc3c(F)c(-c4cccc5cccc(Cl)c45)ncc23)C[C@@H]1CC#N`, more than 0.5 µM; that for `CN(C)C/C=C/C(=O)N1CC[C@@H](N(C)c2nc(OC[C@@]34CCCN3C[C@H](F)C4)nc3c(F)c(-c4cccc5ccc(F)c(Cl)c45)ncc23)C1`, 0.01 to 0.1 µM.
Turning to `C=CC(=O)N1CC[C@H]2[C@@H]1CCN2c1nc(OCC23CCCN2CCC3)nc2c1CCN(c1cccc3cccc(Cl)c13)C2`, the IC50 is more than 0.5 µM.
Then `C=CC(=O)N1CC[C@H]2[C@@H]1CCN2c1nc(OC[C@@]23CCCN2C[C@H](F)C3)nc2c1CCN(c1cccc3cccc(Cl)c13)C2`, with more than 0.5 µM.
Then `C=CC(=O)N1CC[C@H]2[C@H]1CCN2c1nc(OCC23CCCN2CCC3)nc2c1CCN(c1cccc3cccc(Cl)c13)C2`, with more than 0.5 µM.
The result for `C=CC(=O)N1CC[C@H]2[C@H]1CCN2c1nc(OC[C@@]23CCCN2C[C@H](F)C3)nc2c1CCN(c1cccc3cccc(Cl)c13)C2` reads more than 0.5 µM.
For the compound `C=CS(=O)(=O)[C@H]1CC[C@@H](N(C)c2nc(OCC34CCCN3CCC4)nc3c2CCN(c2cccc4cccc(Cl)c24)C3)C1`, the 50% inhibitory concentration (IC50) fell in the range of 0.01 to 0.1 µM.
For the compound `C=CC(=O)CCN(C)c1nc(OCC2CCN2C)nc2c1CCN(c1cccc3cccc(Cl)c13)C2` (stereo not shown), the IC50 is 0.01 to 0.1 µM.
In the case of `C=CS(=O)(=O)[C@@H]1CC[C@H](N(C)c2nc(OCC34CCCN3CCC4)nc3c2CCN(c2cccc4cccc(Cl)c24)C3)C1`, the IC50 is more than 0.5 µM.
The result for `CN(c1nc(OCC23CCCN2CCC3)nc2c(F)c(-c3cccc4ccc(F)c(Cl)c34)ncc12)[C@@H]1CCN(C#N)C1` reads 0.01 to 0.1 µM.
The result for `CN(C)C/C=C/C(=O)N1CC[C@@H](N(C)c2nc(OC[C@@H]3CCCN3C)nc3c(F)c(-c4cccc5ccc(F)c(Cl)c45)ncc23)C1` reads 0.01 to 0.1 µM; that for `CN(C)C/C=C/C(=O)N1CC[C@@H](N(C)c2nc(OCC34CCCN3CCC4)nc3c(F)c(-c4cccc5ccc(F)c(Cl)c45)ncc23)C1`, 0.01 to 0.1 µM; that for `C=CC(=O)N1C[C@H](N(C)c2nc(OCC34CCCN3CCC4)nc3c2CCN(c2cccc4cccc(Cl)c24)C3)C[C@@H]1C#N`, 0.1 to 0.5 µM.
As to `C=CC(=O)N1C[C@H](N(C)c2nc(OCC34CCCN3CCC4)nc3c2CCN(c2cccc4cccc(Cl)c24)C3)C[C@H]1C#N`, the IC50 lay within 0.01 to 0.1 µM.
Then `C=CC(=O)N1CC(CN(C)c2nc(OC[C@@]34CCCN3C[C@H](F)C4)nc3c(F)c(-c4cccc5ccc(F)c(Cl)c45)ncc23)C1`, with 0.01 to 0.1 µM; and `C=CC(=O)N1[C@H]2CC[C@@H]1[C@@H](N(C)c1nc(OC[C@@]34CCCN3C[C@H](F)C4)nc3c1CCN(c1cccc4cccc(Cl)c14)C3)C2`, with more than 0.5 µM; and `N#CN1CC[C@H]2[C@H]1CCN2c1nc(OC[C@@]23CCCN2C[C@H](F)C3)nc2c(F)c(-c3cccc4cccc(Cl)c34)ncc12`, with 0.1 to 0.5 µM.
`N#CN1CC[C@H]2[C@@H]1CCN2c1nc(OC[C@@]23CCCN2C[C@H](F)C3)nc2c(F)c(-c3cccc4cccc(Cl)c34)ncc12`: the IC50 was more than 0.5 µM.
`CN1CCC[C@H]1COc1nc(N(C)[C@@H]2CCN(C#N)C2)c2cnc(-c3cccc4ccc(F)c(Cl)c34)c(F)c2n1`: the 50% inhibitory concentration (IC50) was 0.1 to 0.5 µM.
Then `CN(C)C/C=C/C(=O)N1CC(CN(C)c2nc(OCC34CCCN3CCC4)nc3c(F)c(-c4cccc5ccc(F)c(Cl)c45)ncc23)C1`, with 0.01 to 0.1 µM; and `CN(C)C/C=C/S(=O)(=O)C1CCCN(c2nc(OCC34CCCN3CCC4)nc3c2CCN(c2cccc4cccc(Cl)c24)C3)C1` (stereo not shown), with 0.01 to 0.1 µM; and `C=CC(=O)N1C[C@@H](N(C)c2nc(OC[C@@H]3CCCN3C)nc3c(F)c(-c4cccc5cccc(Cl)c45)ncc23)C[C@@H]1CC#N`, with more than 0.5 µM.
